The subject of the assay is hESCs (H9) derived forebrain organoid. Description: Dorsal-ventral patterning of forebrain organoids with a gradient of Shh agonist (immunostaining). The format is cell-based, human. The method, then: The cells were sub-passaged every 3 to 4 days by 80% to 90% confluence. Before cell culturing, the device 500 was incubated in 2% pluronic for one hour, rinsed with 1×DPBS three times, and dried out before adding the gelatin-transglutaminase mixture to layer 3. Before cell seeding, the medium and medium chambers were incubated at room temperature with E8 basal for up to 24 hrs. The gelatin in the microwells was aspirated after being soaked in the E8 basal before cell seeding.
Cells were seeded using E8 medium supplemented with 10 uM Rock inhibitor (Y27). 100, 000 cells suspended in 5 μl medium were then pipetted into each microwell. Then, the device 500 was centrifuged at 200 g for 2 mins. Then, another 1 ml and 500 μl of medium were added into the medium chamber and the morphogen chamber, respectively. The device 500 was placed into a 37 C.° incubator overnight to generate a cell aggregate. […] It was observed that the EBs were immobilized by growing them around the sutures. To grow EBs around the sutures, a high density of hESCs was seeded directly into the microwell. The size of the EB spheroid at day 8, around 500 μm, was consistent with the diameter of the EB at day 1. The size of EB spheroid could be grown by changing the E8 medium and adding 1% PS daily during continued culturing.
Essential 6 (E6) medium supplemented with 1% PS, 5 μM dorsomorphin (DM), and 10 μM SB-431542 for both medium and morphogen chambers for six days for dual SMAD inhibition. […] To generate a D-V patterned organoid, 5 μM of purmorphamine and 5 μM of IWP-2 were supplemented to the basal medium in the morphogen chamber for five days between day 14 to day 30. To generate cortical organoids, the basal medium was used for both the medium and the morphogen chamber. To generate subpallial organoids, purmorphamine and IWP-2 supplement medium were used for both chambers. The medium was changed daily until day 30.
The organoids were then rinsed with 1×DPBS two times for 10 mins, then fixed by incubating in 4% paraformaldehyde (Electron Microscopy Sciences) at 4 C.° overnight. […]

Regarding `c1ccc2c(Oc3nc(Nc4ccc(N5CCOCC5)cc4)c4ncn(C5CCCCC5)c4n3)cccc2c1` [purmorphamine], the D-V patterning entry (Uniform Pur control: purmorphamine in both medium chamber and morphogen chamber (no gradient)) is “No D-V patterning was established”. The “NKX2.1 marker expression (ventral fate differentiation)” value (gradient group, 5 μM purmorphamine in morphogen chamber (with 5 μM IWP-2), five continuous days between day 14 and day 30, bottom half of organoid) is reported as “higher expression level of NKX2.1 makers was established at the bottom half of the organoid”. For the same molecule, the “PAX6 expression (dorsal fate differentiation)” value (gradient group, 5 μM purmorphamine in morphogen chamber, five continuous days between day 14 and day 30, top half of organoid) is given as “dominant expression of PAX6 was observed”.
